Data from PubChem BioAssay AID504755 (Southern Research Specialized Biocontainment Screening …, 2011).
The source made the active and inactive calls.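 How the source made its calls: active means viability under 80% of untreated control mean at any tested dose, taken as cytotoxic; inactive means the rest.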

tested on: PC3 viability, CellTiter-Glo luminescence, 72 h; assay: viability loss in PC3 cells – cell-based, selected hits, cytotoxicity control for HSV oncolysis enhancer project, dose response (AID 504755)

SMILES	CC50
COc1cc(OC)cc(C(=O)OCCN2CCN(C)CC2)c1	> 100 µM (inactive)
O=C(CN1CCCN(CC(=O)CN2C(=O)c3ccccc3C2=O)CC1)CN1C(=O)c2ccccc2C1=O	> 100 µM (inactive)
COc1cc(C(=O)OCCCN2CCCN(C(=O)c3ccccc3)CC2)cc(OC)c1OC	> 100 µM (inactive)
COc1cc(C(=O)OCCCN2CCCN(C(=O)OC(C)(C)C)CC2)cc(OC)c1OC	> 100 µM (inactive)
COc1cc(C(=O)OCCCN2CCCNCC2)cc(OC)c1OC	> 100 µM (inactive)
COc1cc(NC(=O)Nc2cc(OC)c(OC)c(OC)c2)cc(OC)c1OC	> 100 µM (inactive)
COc1ccc(C(=O)OCCN2CCCN(CCOC(=O)c3ccc(OC)cc3)CC2)cc1	> 100 µM (inactive)
COc1cc(OC)cc(C(=O)OCCCNCCNCCCOC(=O)c2cc(OC)cc(OC)c2)c1	31.7 µM
CNCCN(C)CCOC(=O)c1cc(OC)cc(OC)c1	> 100 µM (inactive)
O=C(NCCCN1CCN(CCCNC(=O)c2ccc3c(c2)OCO3)CC1)c1ccc2c(c1)OCO2	> 100 µM (inactive)
COc1cc(C(=O)OCCCN(C)CCN(C)CCCOC(=O)c2cc(OC)c(OC)c(OC)c2)cc(OC)c1OC	> 100 µM (inactive)
COc1ccc(C(=O)OCCN2CCCN(Cc3ccccc3)CC2)cc1	> 100 µM (inactive)
COc1ccc(C(=O)NCCCN2CCCN(C)CC2)cc1	> 100 µM (inactive)
COc1cc(C(=O)OCCN2CCCN(C)CC2)cc(OC)c1OC	> 100 µM (inactive)
COc1cc(C(=O)OCCCN2CCCN(C(C)=O)CC2)cc(OC)c1OC	> 100 µM (inactive)
CNCCN(C)CCOC(=O)c1cc(OC)c(OC)c(OC)c1	> 100 µM (inactive)
COc1cc(OC)cc(C(=O)OCCCN2CCN(C)CC2)c1	> 100 µM (inactive)
COc1ccc(C(=O)OCCN2CCN(CCOC(=O)c3ccc(OC)cc3)CC2)cc1	> 100 µM (inactive)
COc1cc(C(=O)OCCN2CCOCC2)cc(OC)c1OC	> 100 µM (inactive)
COc1cc(C(=O)OCCN2CCN(CCOC(=O)c3cc(OC)c(OC)c(OC)c3)CC2)cc(OC)c1OC	> 100 µM (inactive)
O=C(OCCCN1CCN(CCCOC(=O)c2ccccc2)CC1)c1ccccc1	> 100 µM (inactive)
COc1cccc(C(=O)NCCCN2CCN(CCCNC(=O)c3cccc(OC)c3)CC2)c1	> 100 µM (inactive)
COc1cc(C(=O)OCCCN2CCCN(C)CC2)cc(OC)c1OC	> 100 µM (inactive)

SMILES	CC50
COc1ccc(C(=O)OCCCN2CCOCC2)cc1	> 100 µM (inactive)
CC(=O)NCCCN1CCCN(CCCNC(C)=O)CC1	> 100 µM (inactive)
CNCCN(C)CCCOC(=O)c1ccc(F)cc1	> 100 µM (inactive)
COc1cc(OC)cc(C(=O)OCCCN2CCCN(C)CC2)c1	> 100 µM (inactive)
COc1cc(C(=O)OCCCN2CCN(C)CC2)cc(OC)c1OC	> 100 µM (inactive)
O=C(OCCCN1CCOCC1)c1ccc(F)cc1	> 100 µM (inactive)
O=C(OCCCN1CCCN(CCCOC(=O)c2ccc(F)cc2)CC1)c1ccc(F)cc1	73.6 µM
CN1CCN(CCCOC(=O)c2ccc(F)cc2)CC1	> 100 µM (inactive)
CN1CCN(CCCOC(=O)c2ccccc2)CC1	> 100 µM (inactive)
COc1cc(C(=O)OCCN2CCN(C)CC2)cc(OC)c1OC	> 100 µM (inactive)
COc1cc(OC)cc(C(=O)OCCN2CCCN(C)CC2)c1	> 100 µM (inactive)
CN1CCCN(CCCOC(=O)c2ccc(F)cc2)CC1	> 100 µM (inactive)
COc1cc(COCCCN2CCCN(CCCOCc3cc(OC)c(OC)c(OC)c3)CC2)cc(OC)c1OC	> 100 µM (inactive)
COc1cc(OC)cc(C(=O)OCCN2CCOCC2)c1	> 100 µM (inactive)
COc1cc(OC)cc(C(=O)OCCCN2CCN(CCCOC(=O)c3cc(OC)cc(OC)c3)CC2)c1	102 µM
COc1cc(OC)cc(C(=O)OCCN2CCN(CCOC(=O)c3cc(OC)cc(OC)c3)CC2)c1	> 100 µM (inactive)
O=C(CCN1CCCN(CCC(=O)Nc2ccccc2)CC1)Nc1ccccc1	> 100 µM (inactive)
COc1cc(OC)cc(C(=O)OCCN2CCCC2)c1	> 100 µM (inactive)
COc1cc(C(=O)OCCN2CCCN(CCOC(=O)c3cc(OC)c(OC)c(OC)c3)CC2)cc(OC)c1OC	> 100 µM (inactive)
COc1cc(C(=O)OCCN2CCCN(Cc3ccccc3)CC2)cc(OC)c1OC	> 100 µM (inactive)
COc1cc(C(=O)OCCCN2CCCN(CCCOC(=O)c3cc(OC)c(OC)c(OC)c3)CC2)cc(OC)c1OC	> 100 µM (inactive)
COc1cc(C(=O)OCCN2CCCC2)cc(OC)c1OC	> 100 µM (inactive)
COc1ccc(C(=O)OCCCNCCNCCCOC(=O)c2ccc(OC)cc2)cc1	24.1 µM

SMILES	CC50
NCCCN1CCCN(CCCN)CC1	> 100 µM (inactive)
COc1ccc(C(=O)OCCN2CCCN(C)CC2)cc1	> 100 µM (inactive)
COc1cc(C(=O)OCCCN2CCCC2)cc(OC)c1OC	> 100 µM (inactive)
O=C(/C=C/c1ccc2c(c1)OCO2)N1CCCN(C(=O)/C=C/c2ccc3c(c2)OCO3)CC1	> 100 µM (inactive)
O=C(OCCCN1CCN(CCCOC(=O)c2ccc(F)cc2)CC1)c1ccc(F)cc1	> 100 µM (inactive)
COc1ccc(C(=O)OCCCN2CCCC2)cc1	> 100 µM (inactive)
COc1cc(-c2cn(CCCN3CCCN(CCCn4cc(-c5cc(OC)c(OC)c(OC)c5)nn4)CC3)nn2)cc(OC)c1OC	> 100 µM (inactive)
COc1ccc(C(=O)OCCCN2CCN(C)CC2)cc1	> 100 µM (inactive)
COc1cc(OC)cc(C(=O)OCCCN2CCCN(Cc3ccccc3)CC2)c1	> 100 µM (inactive)
CNCCN(C)CCCOC(=O)c1ccc(OC)cc1	> 100 µM (inactive)
COc1cc(C(=O)OCCCN2CCN(CCCOC(=O)c3cc(OC)c(OC)c(OC)c3)CC2)cc(OC)c1OC	> 100 µM (inactive)
COc1ccc(C(=O)OCCCN2CCN(CCCOC(=O)c3ccc(OC)cc3)CC2)cc1	> 100 µM (inactive)
COc1ccc(N2C(=O)CC(N3CCCN(C4CC(=O)N(c5ccc(OC)cc5)C4=O)CC3)C2=O)cc1 (stereo not drawn)	> 100 µM (inactive)
COc1cc(OC)cc(C(=O)OCCN2CCCN(CCOC(=O)c3cc(OC)cc(OC)c3)CC2)c1	> 100 µM (inactive)
COc1cc(NC(=O)N2CCCN(C(=O)Nc3cc(OC)c(OC)c(OC)c3)CC2)cc(OC)c1OC	> 100 µM (inactive)
COc1cc(C(=O)NCCCN2CCCN(CCCNC(=O)c3cc(OC)c(OC)c(OC)c3)CC2)cc(OC)c1OC	> 100 µM (inactive)
COc1cc(CN2CCCN(Cc3cc(OC)c(OC)c(OC)c3)CC2)cc(OC)c1OC	> 100 µM (inactive)
CN1CCCN(CCCOC(=O)c2ccccc2)CC1	> 100 µM (inactive)
COc1ccc(C(=O)OCCN2CCN(C)CC2)cc1	> 100 µM (inactive)
COc1ccc(C(=O)OCCCN2CCCN(C)CC2)cc1	> 100 µM (inactive)
COc1cc(C(=O)OCCCN2CCOCC2)cc(OC)c1OC	> 100 µM (inactive)
COc1cc(C(=O)N2CCCN(C(=O)c3cc(OC)c(OC)c(OC)c3)CC2)cc(OC)c1OC	> 100 µM (inactive)
